Data published in publication PMC10700596 (Nature Communications, 2023).
Where “and” joins values, the source holds several entries; their conditions need not be identical. Equal values may be shown once. Entries after “also recorded” stand apart in the source; their conditions may differ. Read-outs that look alike come from different tables or passages of the source.

What was measured:
TIE2 = TIE2 (Homo sapiens, UniProt Q02763); experiment: biochemical; format: binding; settings: 10000 nM; read-out: Percent Control
[1] = molecular target: T1, Thromboxane A2 (TP) receptor (Homo sapiens, UniProt P21731); experiment: Functional cAMP production assay, TP receptor; format: cell-based
T1 sequence (P21731 1-343): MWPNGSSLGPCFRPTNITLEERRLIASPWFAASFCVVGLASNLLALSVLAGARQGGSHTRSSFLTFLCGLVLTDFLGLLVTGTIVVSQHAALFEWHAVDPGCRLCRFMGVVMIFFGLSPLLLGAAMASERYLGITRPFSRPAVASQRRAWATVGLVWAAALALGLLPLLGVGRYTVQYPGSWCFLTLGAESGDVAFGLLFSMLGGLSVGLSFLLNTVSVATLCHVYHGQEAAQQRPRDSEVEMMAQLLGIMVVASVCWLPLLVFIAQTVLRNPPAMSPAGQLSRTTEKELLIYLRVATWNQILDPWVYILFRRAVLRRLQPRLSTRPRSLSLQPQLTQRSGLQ

ALK = ALK (Homo sapiens, UniProt Q9UM73); experiment: biochemical; format: binding; settings: 10000 nM; read-out: Percent Control
NMUR2 = NMUR2 (Homo sapiens, UniProt Q9GZQ4); format: cell-based
Procedure: (§1) EP4R. e) EP4R functional cyclic AMP production assay. Dose-response curves were obtained for 74 (KB […]
(§2) production assays for the prostaglandin D2 (PGD2) receptor or the Thromboxane A2 (TP) receptor, respectively. AZD1981 and Ramatroban were used as control PGD2 and TP receptor antagonists, respectively. U46619 served as a TP receptor agonist. H) GPCRome off-target screening of 74 at 10 µM. i) Potential off-targets that met the activity threshold (3-fold of increase of basal) in the GPCRome screen (GPR174, GPR160, or NMUR2) were investigated with full dose-response curves in PRESTO-Tango […]
(§3) Data in a)-d), f)-g), i) represents mean ± SEM of three independent experiments. Data in e) represents two technical replicates. Data in h) represents mean ± SEM of four technical replicates. Source data are provided as a Source Data file.
(§4) (1 picture or pasted object on this page, not shown here)

GPR174 = GPR174 (Homo sapiens, UniProt Q9BXC1); format: cell-based
Procedure: as §1, §2, §3, §4

GPR160 = GPR160 (Homo sapiens, UniProt Q9UJ42); format: cell-based
Procedure: as §1, §2, §3, §4

EP1R = EP1R (Homo sapiens, UniProt P34995); experiment: Radioligand (3H-PGE2) displacement assay at EP1R; format: binding
COX-1 = molecular target: T2, COX-1 (Homo sapiens, UniProt P23219); experiment: COX-1 inhibition (Eurofins item 4173); format: biochemical
T2 construct: purchased Eurofins item 4173
Excerpt: . […] This panel includes several adverse drug reaction receptors such as the serotonin receptor 5HT2b, M1 and M2 muscarinic receptors and adrenergic receptors. […]. page 7:
Supplementary Figure 7: Non-GPCR off-target screening for 74. a)-e) Dose-response curves of 74 at […]
proliferator-activated receptor gamma (PPARγ, Eurofins item G124). Data in a)-e) and g)-i) represent two technical replicates. Source data are provided as a Source Data file.
as §4

CSNK1D = CSNK1D (Homo sapiens, UniProt P48730); experiment: biochemical; format: binding; settings: 10000 nM; read-out: Percent Control
CSF1R = CSF1R (Homo sapiens, UniProt P07333); experiment: biochemical; format: binding; settings: 10000 nM; read-out: Percent Control
wild-type EP4R = wild-type EP4R (Homo sapiens, UniProt P35408); experiment: cell-based
EP2R = EP2R (Homo sapiens, UniProt P43116); experiment: Radioligand (3H-PGE2) displacement assay at EP2R; format: binding
mice [2] = format: in vivo; settings: for CFA-induced allodynia, mechanical threshold (von Frey): individual animals
JNK3 = JNK3 (Homo sapiens, UniProt P53779); experiment: biochemical; format: binding; settings: 10000 nM; read-out: Percent Control
SNARK = SNARK (Homo sapiens, UniProt Q9H093); experiment: biochemical; format: binding; settings: 10000 nM; read-out: Percent Control
[3] = molecular target: T3, RSK2(Kin.Dom.1-N-terminal) (Homo sapiens, UniProt P51812); experiment: KINOMEscan; format: binding
T3 construct: RSK2(Kin.Dom.1-N-terminal); purchased Eurofins DiscoverX KINOMEscan (scanEDGE, 97 kinases)

AURKB = AURKB (Homo sapiens, UniProt Q96GD4); experiment: biochemical; format: binding; settings: 10000 nM; read-out: Percent Control
Excerpt: as §4

EPHA2 = EPHA2 (Homo sapiens, UniProt P29317); experiment: biochemical; format: binding; settings: 10000 nM; read-out: Percent Control
mice [4] = format: in vivo
Procedure: For all behavioral tests, the experimenter was always blind to treatment. Animals were habituated for 60 min in Plexiglas cylinders before testing. […] For 10 mg/kg doses, compounds were prepared in 2.5 mg/ml solutions of which 100 µL were administered to mice (average weight 25 g). For 30 mg/kg doses, 7.5 mg/ml solutions were prepared. […] Hindpaw mechanical thresholds were determined with von Frey filaments using the up-down method, 60 min after administration of the EP4R antagonists (i.p. or via oral gavage). For the ambulatory (rotarod) test, mice were first trained on an accelerating rotating rod, 3 times for 5 minutes, before testing with any compound. On the test day, latency to fall from the rod was measured 1 h after injection of the compound. The cutoff was 300 s. Statistical tests were performed with GraphPad Prism 9.0 (GraphPad Software Inc., San Diego).

mice [5] = format: in vivo; settings: for Carrageenan-induced allodynia, mechanical threshold (von Frey): individual animals

T2 sequence (P23219 24-599): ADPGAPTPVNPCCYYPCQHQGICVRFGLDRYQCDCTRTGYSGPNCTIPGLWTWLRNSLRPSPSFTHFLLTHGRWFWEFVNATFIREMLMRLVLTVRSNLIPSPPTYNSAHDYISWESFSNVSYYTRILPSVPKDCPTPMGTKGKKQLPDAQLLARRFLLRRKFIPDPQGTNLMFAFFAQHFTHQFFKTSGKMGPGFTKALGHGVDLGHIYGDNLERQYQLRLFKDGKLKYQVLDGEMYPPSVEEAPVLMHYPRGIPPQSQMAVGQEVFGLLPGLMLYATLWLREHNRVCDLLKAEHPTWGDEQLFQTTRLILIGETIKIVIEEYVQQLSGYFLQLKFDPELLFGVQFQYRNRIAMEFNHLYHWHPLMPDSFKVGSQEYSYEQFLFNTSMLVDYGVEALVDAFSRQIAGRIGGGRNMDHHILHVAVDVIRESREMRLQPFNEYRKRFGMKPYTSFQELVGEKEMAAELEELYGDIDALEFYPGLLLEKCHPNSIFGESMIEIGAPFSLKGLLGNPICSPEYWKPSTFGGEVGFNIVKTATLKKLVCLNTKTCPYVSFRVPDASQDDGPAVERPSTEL
Sequence of wild-type EP4R (P35408 whole entry): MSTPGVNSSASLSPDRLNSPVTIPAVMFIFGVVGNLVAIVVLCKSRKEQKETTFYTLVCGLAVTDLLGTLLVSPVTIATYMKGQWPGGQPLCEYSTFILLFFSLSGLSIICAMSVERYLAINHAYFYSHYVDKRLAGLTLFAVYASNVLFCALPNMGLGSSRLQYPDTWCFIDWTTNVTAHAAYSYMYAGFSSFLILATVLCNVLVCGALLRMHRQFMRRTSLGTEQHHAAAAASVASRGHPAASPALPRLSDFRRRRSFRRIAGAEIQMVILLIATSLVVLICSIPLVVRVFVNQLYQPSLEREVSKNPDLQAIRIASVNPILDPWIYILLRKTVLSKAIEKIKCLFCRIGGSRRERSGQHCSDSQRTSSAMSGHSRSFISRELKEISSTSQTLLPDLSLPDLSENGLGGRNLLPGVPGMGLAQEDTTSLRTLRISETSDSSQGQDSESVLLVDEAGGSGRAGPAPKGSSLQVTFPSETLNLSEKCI
T3 sequence (P51812 1-397 limits assumed): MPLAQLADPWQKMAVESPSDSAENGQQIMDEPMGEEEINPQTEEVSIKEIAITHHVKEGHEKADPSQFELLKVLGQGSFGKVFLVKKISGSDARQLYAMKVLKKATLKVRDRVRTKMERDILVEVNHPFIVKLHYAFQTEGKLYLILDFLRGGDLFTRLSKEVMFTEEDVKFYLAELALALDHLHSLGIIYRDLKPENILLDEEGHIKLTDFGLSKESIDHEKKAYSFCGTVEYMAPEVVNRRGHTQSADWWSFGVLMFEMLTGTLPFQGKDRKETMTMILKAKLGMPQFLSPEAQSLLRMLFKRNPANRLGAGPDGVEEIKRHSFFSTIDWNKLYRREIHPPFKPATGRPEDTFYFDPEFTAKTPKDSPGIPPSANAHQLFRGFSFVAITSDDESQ
Sequence of ALK (Q9UM73 19-1620): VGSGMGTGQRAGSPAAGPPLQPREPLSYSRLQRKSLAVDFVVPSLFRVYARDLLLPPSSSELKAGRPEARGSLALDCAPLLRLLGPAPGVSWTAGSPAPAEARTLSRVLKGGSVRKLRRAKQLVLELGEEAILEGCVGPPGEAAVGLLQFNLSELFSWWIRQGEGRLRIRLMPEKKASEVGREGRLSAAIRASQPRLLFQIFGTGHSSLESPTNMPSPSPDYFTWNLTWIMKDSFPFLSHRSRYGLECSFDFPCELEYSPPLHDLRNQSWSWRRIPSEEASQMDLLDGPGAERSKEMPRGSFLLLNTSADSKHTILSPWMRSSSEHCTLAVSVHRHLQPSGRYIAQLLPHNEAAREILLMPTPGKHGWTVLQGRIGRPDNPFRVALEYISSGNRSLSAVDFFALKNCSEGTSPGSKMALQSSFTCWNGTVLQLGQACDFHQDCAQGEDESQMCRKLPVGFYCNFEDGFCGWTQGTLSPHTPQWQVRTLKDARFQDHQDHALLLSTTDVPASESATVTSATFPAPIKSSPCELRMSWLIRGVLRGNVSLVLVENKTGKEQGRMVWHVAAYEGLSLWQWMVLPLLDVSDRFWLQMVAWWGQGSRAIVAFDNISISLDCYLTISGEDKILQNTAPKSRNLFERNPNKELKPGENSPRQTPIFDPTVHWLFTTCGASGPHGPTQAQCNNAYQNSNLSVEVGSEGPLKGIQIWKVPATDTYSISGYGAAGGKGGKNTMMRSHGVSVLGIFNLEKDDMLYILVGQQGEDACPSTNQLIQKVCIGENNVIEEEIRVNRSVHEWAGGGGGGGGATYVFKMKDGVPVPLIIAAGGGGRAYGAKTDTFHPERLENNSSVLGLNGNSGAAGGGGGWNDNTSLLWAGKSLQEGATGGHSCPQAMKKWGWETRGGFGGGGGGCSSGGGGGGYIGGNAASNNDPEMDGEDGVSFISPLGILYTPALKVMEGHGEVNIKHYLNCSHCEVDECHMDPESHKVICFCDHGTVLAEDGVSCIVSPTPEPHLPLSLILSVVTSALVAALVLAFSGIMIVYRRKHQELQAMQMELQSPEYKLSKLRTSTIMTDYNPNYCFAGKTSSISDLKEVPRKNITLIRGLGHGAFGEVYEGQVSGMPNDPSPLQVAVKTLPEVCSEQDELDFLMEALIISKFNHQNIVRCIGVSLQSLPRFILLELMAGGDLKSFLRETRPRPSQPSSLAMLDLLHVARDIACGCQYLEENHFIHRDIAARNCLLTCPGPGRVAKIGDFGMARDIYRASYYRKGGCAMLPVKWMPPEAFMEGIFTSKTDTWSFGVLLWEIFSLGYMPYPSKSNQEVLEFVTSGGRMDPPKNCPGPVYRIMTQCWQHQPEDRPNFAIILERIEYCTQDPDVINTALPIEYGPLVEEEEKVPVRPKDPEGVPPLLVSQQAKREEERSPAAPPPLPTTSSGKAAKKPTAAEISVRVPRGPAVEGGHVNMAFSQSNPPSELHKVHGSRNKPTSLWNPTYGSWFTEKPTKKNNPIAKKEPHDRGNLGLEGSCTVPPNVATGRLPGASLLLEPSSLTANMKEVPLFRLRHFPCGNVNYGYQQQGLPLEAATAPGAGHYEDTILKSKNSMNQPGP
Sequence of EP2R (P43116 whole entry): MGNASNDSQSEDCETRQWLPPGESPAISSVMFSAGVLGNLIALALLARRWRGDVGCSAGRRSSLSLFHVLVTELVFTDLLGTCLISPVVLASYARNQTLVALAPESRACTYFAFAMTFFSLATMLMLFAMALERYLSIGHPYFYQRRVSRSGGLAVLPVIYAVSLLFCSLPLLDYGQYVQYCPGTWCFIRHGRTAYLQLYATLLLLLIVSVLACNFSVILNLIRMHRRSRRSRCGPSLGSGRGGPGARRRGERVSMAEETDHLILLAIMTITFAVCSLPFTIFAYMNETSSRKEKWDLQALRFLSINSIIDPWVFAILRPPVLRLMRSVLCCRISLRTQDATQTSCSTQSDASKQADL
Sequence of EPHA2 (P29317 24-976): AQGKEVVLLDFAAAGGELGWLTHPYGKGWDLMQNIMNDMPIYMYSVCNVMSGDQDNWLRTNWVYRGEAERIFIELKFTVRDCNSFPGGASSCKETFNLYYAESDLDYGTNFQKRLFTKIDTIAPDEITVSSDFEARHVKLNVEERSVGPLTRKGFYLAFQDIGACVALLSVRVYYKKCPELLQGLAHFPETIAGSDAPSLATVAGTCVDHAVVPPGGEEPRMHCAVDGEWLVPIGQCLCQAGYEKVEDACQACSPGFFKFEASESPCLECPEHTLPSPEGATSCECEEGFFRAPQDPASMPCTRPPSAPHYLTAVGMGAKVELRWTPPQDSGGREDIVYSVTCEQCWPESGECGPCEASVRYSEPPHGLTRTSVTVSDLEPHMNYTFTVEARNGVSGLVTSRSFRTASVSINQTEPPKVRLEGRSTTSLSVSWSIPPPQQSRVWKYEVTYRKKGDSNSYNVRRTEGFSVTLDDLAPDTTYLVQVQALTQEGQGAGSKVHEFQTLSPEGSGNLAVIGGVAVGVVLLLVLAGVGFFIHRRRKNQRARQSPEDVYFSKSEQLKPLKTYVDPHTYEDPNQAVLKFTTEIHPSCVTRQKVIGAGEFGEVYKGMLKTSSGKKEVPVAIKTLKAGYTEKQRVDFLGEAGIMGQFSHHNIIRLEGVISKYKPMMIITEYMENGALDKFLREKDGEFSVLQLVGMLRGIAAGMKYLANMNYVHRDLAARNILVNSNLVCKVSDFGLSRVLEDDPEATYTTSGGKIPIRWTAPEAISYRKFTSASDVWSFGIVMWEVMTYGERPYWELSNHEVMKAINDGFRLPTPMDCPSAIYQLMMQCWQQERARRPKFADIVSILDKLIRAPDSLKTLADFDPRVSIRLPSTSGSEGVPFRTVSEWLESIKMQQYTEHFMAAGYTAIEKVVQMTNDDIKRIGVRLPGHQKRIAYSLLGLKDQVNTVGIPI
Sequence of CSNK1D (P48730 whole entry): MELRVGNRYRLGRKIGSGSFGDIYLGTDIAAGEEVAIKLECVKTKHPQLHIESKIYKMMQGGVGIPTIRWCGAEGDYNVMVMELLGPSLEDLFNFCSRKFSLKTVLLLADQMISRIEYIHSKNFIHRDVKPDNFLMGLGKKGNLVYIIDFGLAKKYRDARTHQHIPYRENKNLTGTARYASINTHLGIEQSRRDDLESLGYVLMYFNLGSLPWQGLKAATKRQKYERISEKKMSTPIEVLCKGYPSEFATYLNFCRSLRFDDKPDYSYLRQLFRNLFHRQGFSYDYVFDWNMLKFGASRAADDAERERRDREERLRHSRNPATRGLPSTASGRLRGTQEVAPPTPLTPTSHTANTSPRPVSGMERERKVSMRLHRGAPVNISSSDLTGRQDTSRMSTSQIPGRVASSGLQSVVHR

O=C(O)C1CCC2(CC1)CC(Nc1ncnc3[nH]c4c(F)cccc4c13)C2 (stereo not shown) [Compound 74, OC(=O)C1CCC2(CC(C2)NC=3N=CN=C4NC=5C(F)=CC=CC5C34)CC1]
remaining activity at 10 µM (TIE2): 81% | off-target activity at thromboxane A2 receptor [1]: no off-target activities | remaining activity at 10 µM (ALK): 14% | activity in full dose-response (NMUR2): no activity | activity in full dose-response (GPR174): no activity | activity in full dose-response (GPR160): no activity | binding to EP1 receptor (EP1R): no binding | inhibitory / off-target activity at COX-1 (COX-1; 3 µM): no off-target activity; also recorded: no inhibitory activity | %Inhibition of Control Values (COX-1; COX-1, 3 µM, technical replicates): -5.7% and -9.9% | remaining activity at 10 µM (CSNK1D): 3.2% | remaining activity at 10 µM (CSF1R): 69% | IC50 (wild-type EP4R): 78.9 nM | mode of antagonism by Schild analysis (wild-type EP4R): competitive antagonism | Ki (wild-type EP4R; calculated using the Cheng Prusoff equation, read-out: Arrestin-BRET Ki*): 15.6 nM | binding to EP2 receptor (EP2R): no binding | CFA-induced allodynia, mechanical threshold (von Frey) (mice [2]; 10 mg/kg IP, day 3): 31.5 and 39 and 36.3 and 64.2 and 20.2 | CFA-induced allodynia, mechanical threshold (von Frey) (mice [2]; 30 mg/kg IP, day 4): 35.4 and 28.1 and 62 and 31.3 and 22.9 | effect on CFA-induced mechanical allodynia (mice [2]; 10 and 30 mg/kg i.p.): significantly decreased; also recorded: reduced | remaining activity at 10 µM (JNK3): 40% | remaining activity at 10 µM (SNARK): 54% | remaining binding at 10 µM ([3]; 10000 nM, read-out: Percent Control): 0.25% | Signal (qPCR) ([3]; RSK2, [Compound] 0.0001 nM): 4.94e-6 and 4.75e-6 | Signal (qPCR) ([3]; RSK2, [Compound] 0.01 nM): 3.91e-6 and 4.73e-6 | Signal (qPCR) ([3]; RSK2, [Compound] 0.169 nM): 4.25e-6 and 3.92e-6 | Signal (qPCR) ([3]; RSK2, [Compound] 0.508 nM): 4.17e-6 and 4.75e-6 | Signal (qPCR) ([3]; RSK2, [Compound] 1.52 nM): 4.57e-6 and 4.32e-6 | Signal (qPCR) ([3]; RSK2, [Compound] 4.57 nM): 4.65e-6 and 4.1e-6 | Signal (qPCR) ([3]; RSK2, [Compound] 13.7 nM): 3.9e-6 and 3.53e-6 | Signal (qPCR) ([3]; RSK2, [Compound] 41.2 nM): 3.36e-6 and 3.55e-6 | Signal (qPCR) ([3]; RSK2, [Compound] 123 nM): 3.09e-6 and 2.73e-6 | Signal (qPCR) ([3]; RSK2, [Compound] 370 nM): 2.17e-6 and 2e-6 | Signal (qPCR) ([3]; RSK2, [Compound] 3330 nM): 5.93e-7 and 5.31e-7 | Signal (qPCR) ([3]; RSK2, [Compound] 10000 nM): 2.67e-7 and 3.25e-7 | remaining activity at 10 µM (AURKB): 8.2% | remaining activity at 10 µM (EPHA2): 83%

O=C([O-])C1CCC2(CC1)CC(Nc1ncnc3[nH]c4c(F)cccc4c13)C2.[Na+] (stereo not shown) [Compound 77, [Na+].[O-]C(=O)C1CCC2(CC(C2)NC=3N=CN=C4NC=5C(F)=CC=CC5C34)CC1]
Rotarod latency to fall (mice [4]; 30 mg/kg IP, 1 h after injection, cutoff 300 s, individual animals): 300 s and 281 s and 295 s and 269 s | motor impairment in the rotarod test (mice [4]; mouse, in vivo): did not induce motor impairment | Uninjured mice, individual animal values (Supplementary Figure 10A) (mice [4]; uninjured mice, IP 30 mg/kg, single animals, 30 mg/kg): 116 and 71.5 and 93.5 and 86.1 and 110.4 | Carrageenan-induced allodynia, mechanical threshold (von Frey) (mice [5]; 10 mg/kg IP): 27 and 58.1 and 18.1 and 18.3 and 32 and 31.3 and 24.3 and 20.9 and 32.5 and 40 | effect on carrageenan-mediated mechanical allodynia (mice [5]; 10 mg/kg i.p.): equal anti-allodynic effects; also recorded: equally reduce carrageenan-mediated mechanical allodynia | Carrageenan-induced allodynia, mechanical threshold (von Frey) (mice [5]; 30 mg/kg IP): 30.3 and 39.4 and 44.8 and 39.1 and 40.4 | Carrageenan-induced allodynia, mechanical threshold (von Frey) (mice [5]; 30 mg/kg PO): 45.8 and 24.2 and 57.3 and 32.3 and 42.9 and 24.5 and 10.4 and 51.4 and 11.4 and 35.4 | effect on carrageenan-mediated mechanical allodynia (mice [5]; 30 mg/kg i.p. or p.o.): significant anti-allodynic properties
